Patent publication US11903923B2, “Use of andrographolide derivatives in preparation of medicaments for preventing and treating inflammatory bowel diseases” (GUANGZHOU MAGPIE PHARMACEUTICALS CO., LTD., priority 2015, dated 2024)

Legend:
[1] = tested on: TNBS-induced ulcerative colitis mice; assay: body weight of TNBS-induced ulcerative colitis mice; format: in vivo
Text: The mice of normal control group were shown lively, body hair shiny, and weight continued to increase. The model mice after TNBS enema appeared to be apathetic and lazy with body hair messy and less luster, and with water intake being reduced. The model mice were also shown continuing decrease in body weight, with an average weight loss of 17.9% on the third day compared with that before rectal perfusion.

COX-2 = assay: expression of COX-2 in colon tissue; format: in vivo; settings: TNBS-induced mice
Text: Cyclooxygenase-2 (COX-2) is undetectable in normal human colonic epithelial cells, but the presence of a large amount of COX-2 can be detectable in the intestinal mucosal epithelial cells of CD patients and UC patients. Such high expression can cause elevated expression of pro-inflammatory substance of prostaglandin, and promote IBD epithelial congestion and edema.

[2] = tested on: TNBS-induced ulcerative colitis mice; assay: histopathological observation (HE staining, CMDI) of the colon of TNBS-induced ulcerative colitis mice; format: in vivo
Text: Colon tissues were paraffin-embedded and sliced in parallel with HE staining.

[3] = tested on: TNBS-induced ulcerative colitis mice; assay: colon length of TNBS-induced ulcerative colitis mice; format: in vivo; settings: three days after TNBS enema
[4] = tested on: TNBS-induced ulcerative colitis mice; assay: morphological observation of the colon of TNBS-induced ulcerative colitis mice; format: in vivo
Text: In the TNBS model group mice, the lesions of the colon were obvious, the colon was shortened, the proximal colon was dilated with indication of obstructive lesions, and the distal intestine became narrowed with indication of ulceration with congestion, edema, erosion and intestinal wall thickening.

[5] = tested on: TNBS-induced ulcerative colitis mice; assay: disease activity index (DAI) of TNBS-induced ulcerative colitis mice; format: in vivo; settings: third day after enema
PPAR-γ = assay: amount of PPAR-γ expressed in colon tissue; format: in vivo; settings: TNBS-induced mice
Text: Peroxisome proliferator-activated receptor γ (PPAR-γ) may have anti-inflammatory effects by inhibiting the expression of transcription factors NF-κB, AP-1 and other related genes, have the effects of reducing the expression of inflammatory factors and adhesion molecules, and play important role for maintaining the integrity of the intestinal mucosa. Studies have shown that, when IBD occurred, the in vivo expression of PPAR-γ would be reduced in some extent.

TNF-α = assay: serum inflammatory cytokine TNF-α in TNBS-induced ulcerative colitis mice; format: in vivo
IL-6 = assay: serum inflammatory cytokine IL-6 in TNBS-induced ulcerative colitis mice; format: in vivo
[6] = tested on: p65 subunit in the NF-κB signaling pathway; assay: Western blotting of p-p65 and p65 in colonic tissues; format: in vivo, mice; settings: compared with the model group
Text: NF-κB, as a key transcription factor regulating the release of inflammatory cytokines, plays an important role in the complex cytokine dysregulation network of IBD. To investigate whether the inhibitory effect of AL-1 on the expression of inflammatory cytokines TNF-α, IL-6 and IL-1β is related to the activation of NF-κB signaling pathway, the present inventors used Western blotting to detect the expression of p-p65 and p65 in colonic tissues.

myeloperoxidase (MPO) = assay: MPO activity test in colon tissue of TNBS-induced ulcerative colitis mice; format: in vivo
Text: It can be seen from the results of MPO activity test in colonic tissues that the content of MPO in normal tissue was very low, the neutrophil infiltration was obvious in model group treated with TNBS, and the content of MPO increased obviously, being twice as that in normal group.

IL-1β = assay: serum inflammatory cytokine IL-1β in TNBS-induced ulcerative colitis mice; format: in vivo
[7] = first 60 minutes of the reaction, in vitro; cited from earlier work

Q: Which “body weight increase on average compared with the model group” value ([1]; AL-1 45 mg/kg, third day) does the source give for `C=C1CCC2[C@@](C)(CC[C@@H](O)[C@@]2(C)CO)C1C/C=C1/C(=O)OCC1OC(=O)CCCCC1CCSS1` (stereo partly shown) [AL-1] here?
A: The value was 4.65%.

Q: And the “COX-2 expression level in colon tissue” value (COX-2)?
A: The value was “effectively inhibit the increase of COX-2 expression level”.

Q: What about the “colon histopathology (HE staining)” value ([2]; 5 mg/kg) of the same compound?
A: Its value is “obvious myositis cell infiltration of mucosa and submucosa but in much less extent as compared with the model groups”.

Q: And the “colon histopathology (HE staining)” value ([2]; 15 mg/kg)?
A: Its value is “myositis cell infiltration was reduced”.

Q: And the “colon histopathology (HE staining)” value ([2]; 45 mg/kg)?
A: Its value is “significant reduction in the amount of myositis cell infiltration of mucosa and submucosa”.

Q: And the “CMDI (tissue damage)” value ([2]; AL-1 5, 15 and 45 mg/kg)?
A: Its value is “improve tissue damage in a dose-dependent manner”.

Q: And the colon length ([3]; AL-1 5, 15 and 45 mg/kg)?
A: Its colon length is “enhanced the colonic length”.

Q: And the colon morphology ([4]; AL-1 5, 15 and 45 mg/kg)?
A: The colon morphology was “significant reduction of the symptoms”.

Q: What about the “average DAI score” value ([5]; 5 mg/kg) of the same compound?
A: The value was 6.00.

Q: What about the “average DAI score” value ([5]; 15 mg/kg) of the same compound?
A: Its value is 6.25.

Q: And the “average DAI score” value ([5]; 45 mg/kg)?
A: Its value is 4.00.

Q: What about the “expression of PPAR-γ in colon tissue” value (PPAR-γ) of the same compound?
A: Its value is “significantly increased the expression of PPAR-γ”.

Q: What about the “serum level of TNF-α” value (TNF-α; AL-1 5, 15, 45 mg/kg) of the same compound?
A: The value was “significantly lessen the increase”.

Q: What about the “serum level of IL-6” value (IL-6; AL-1 5, 15, 45 mg/kg) of the same compound?
A: Its value is “significantly lessen the increase”.

Q: What about the “phosphorylation level of p65 in colonic tissue” value [6] of the same compound?
A: Its value is “significantly reduce the phosphorylation level of p65”.

Q: And the “MPO content in the colon tissue” value (myeloperoxidase (MPO); AL-1 5, 15 and 45 mg/kg)?
A: The value was “lessen in a dose-dependent manner the increase of the MPO content”.

Q: And the “serum level of IL-1β” value (IL-1β; AL-1 5, 15, 45 mg/kg)?
A: The value was “significantly lessen the increase”.

Q: What about the “binding rate with the sulfydryl group of GSH relative to Andro” value [7] of the same compound?
A: The value was 7 times.

Q: Which results are given for `Nc1ccc(O)c(C(=O)O)c1` [Mesalazine, reference compound]?
A: body weight of the mice ([1]; Mesalazine, from the second day after modeling, P<0.05): significantly increased body weight; COX-2 expression level in colon tissue (COX-2): effectively inhibit the increase of COX-2 expression level; colon histopathology (HE staining) ([2]; 100 mg/kg): obvious relief of myositis cell infiltration; CMDI (mucosal injury) ([2]; Mesalazine): significant effect to improve mucosal injury; improvement of colon length ([3]; Mesalazine, compared with the model groups): not significant; colon morphology ([4]; Mesalazine group): improvement on colon injury; average DAI score ([5]; 100 mg/kg): 5.13; expression of PPAR-γ in colon tissue (PPAR-γ): significantly increased the expression of PPAR-γ; serum level of TNF-α (TNF-α; Mesalazine): significantly lessen the increase; serum level of IL-6 (IL-6; Mesalazine): significantly lessen the increase; phosphorylation level of p65 in colonic tissue [6]: significantly reduce the phosphorylation level of p65; MPO content in the colon tissue (myeloperoxidase (MPO); Mesalazine, P<0.01): obviously reduce the content of MPO; serum level of IL-1β (IL-1β; Mesalazine): significantly lessen the increase
